Columns and labels:
human Factor XI mRNA [1] = experiment: Dose-dependent inhibition in HepB3 cells, lipofectin (Example 7); format: cell-based; conditions: approx. 16 h
Description: Cells were plated at a density of 4,000 cells per well and transfected using lipofectin reagent with 2.3 nM, 4.7 nM, 9.4 nM, 18.75 nM, 37.5 nM, and 75 nM concentrations of antisense oligonucleotide, as specified in Table 14. After a treatment period of approximately 16 hours, RNA was isolated from the cells and human Factor XI mRNA levels were measured by quantitative real-time PCR. Human Factor XI primer probe set RTS 2966 was used to measure mRNA levels. Factor XI mRNA levels were adjusted according to total RNA content, as measured by RIBOGREEN®. Results are presented as percent inhibition of Factor XI, relative to untreated control cells.

human Factor XI mRNA [2] = experiment: Dose-dependent inhibition in HepG2 cells, lipofectin (Example 5); format: cell-based; conditions: 16 hours
Description: Cells were plated at a density of 10,000 cells per well and transfected using lipofectin reagent with 2.34 nM, 4.69 nM, 9.375 nM, 18.75 nM, 37.5 nM, and 75 nM concentrations of antisense oligonucleotide, as specified in Table 11. After a treatment period of approximately 16 hours, RNA was isolated from the cells and human Factor XI mRNA levels were measured by quantitative real-time PCR. Human Factor XI primer probe set RTS 2966 was used to measure mRNA levels. Factor XI mRNA levels were adjusted according to total RNA content, as measured by RIBOGREEN®. Results are presented as percent inhibition of human Factor XI, relative to untreated control cells.

human Factor XI mRNA [3] = experiment: Dose-dependent inhibition in HepG2 cells, electroporation (Example 4); format: cell-based; conditions: 16 hours
Outline: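 HepG2 cells electroporated with 0.7, 2.2, 6.7 or 20 μM antisense gapmer and harvested after ~16 h. Factor XI mRNA quantified by qRT-PCR (primer probe set RTS 2966), normalised to total RNA (RIBOGREEN). Reported as percent inhibition versus untreated control cells.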

human Factor XI mRNA [4] = experiment: Dose-dependent inhibition in HepG2 cells, electroporation (Example 5); format: cell-based; conditions: approx. 16 h, relative to untreated control cells
Description: The gapmers were also transfected via electroporation and their dose dependent inhibition of human Factor XI mRNA was measured. Cells were plated at a density of 20,000 cells per well and transfected via electroporation with 625 nM, 1250 nM, 2500 nM, 5,000 nM, 10,000 nM, and 20,000 nM concentrations of antisense oligonucleotide, as specified in Table 12. After a treatment period of approximately 16 hours, RNA was isolated from the cells and human Factor XI mRNA levels were measured by quantitative real-time PCR. Human Factor XI primer probe set RTS 2966 was used to measure mRNA levels. Factor XI mRNA levels were adjusted according to total RNA content, as measured by RIBOGREEN®. Results are presented as percent inhibition of human Factor XI, relative to untreated control cells.

human Factor XI mRNA [5] = experiment: Dose-dependent inhibition in HepG2 cells, lipofectin (Example 4); format: cell-based; conditions: 16 hours
Outline: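 Read-out was percent inhibition of Factor XI mRNA relative to untreated controls, by qRT-PCR (RTS 2966) adjusted for RIBOGREEN-measured total RNA. Cells received antisense oligonucleotide at 9.375 to 75 nM (four levels) via lipofectin. Treatment lasted approximately 16 hours, with plating at 10,000 cells per well.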

human Factor XI mRNA [6] = experiment: Dose-dependent inhibition in cyno primary hepatocytes, electroporation (Example 6); format: cell-based, cynomolgus monkey; conditions: approx. 16 h
Description: Cells were plated at a density of 35,000 cells per well and transfected via electroporation with 0.74 nM, 2.2 nM, 6.7 nM, 20 nM, 60 nM, and 180 nM concentrations of antisense oligonucleotide, as specified in Table 13. After a treatment period of approximately 16 hours, RNA was isolated from the cells and human Factor XI mRNA levels were measured by quantitative real-time PCR. Human Factor XI primer probe set RTS 2966 was used to measure mRNA levels. Factor XI mRNA levels were adjusted according to total RNA content, as measured by RIBOGREEN®. Results are presented as percent inhibition of human Factor XI, relative to untreated control cells.

[7] = Tolerability in Sprague-Dawley rats: kidney function (Example 19); format: in vivo; conditions: Sprague Dawley rats
From the text: (§1) Urine samples were taken before the start of treatment.

human Factor XI mRNA [8] = experiment: Dose-dependent inhibition in HepB3 cells, electroporation (Example 7); format: cell-based; conditions: approx. 16 h
Description: The gapmers were also transfected via electroporation and their dose dependent inhibition of human Factor XI mRNA was measured. Cells were plated at a density of 20,000 cells per well and transfected via electroporation with 41.15 nM, 123.457 nM, 370.37 nM, 1111.11 nM, 3333.33 nM, and 10,000 nM concentrations of antisense oligonucleotide, as specified in Table 15. After a treatment period of approximately 16 hours, RNA was isolated from the cells and human Factor XI mRNA levels were measured by quantitative real-time PCR. Human Factor XI primer probe set RTS 2966 was used to measure mRNA levels. Factor XI mRNA levels were adjusted according to total RNA content, as measured by RIBOGREEN®. Results are presented as percent inhibition of human Factor XI, relative to untreated control cells.

[9] = Tolerability in Sprague-Dawley rats: body and organ weight (Example 19); format: in vivo; conditions: 50 mg/kg s.c. twice per week for 6 weeks, change over weight at start of study
From the text: as §1
The body weights are presented in Table 78 and are expressed as a percent change over the weights taken at the start of the study.

## 416826 (antisense ATGCCCTTCATGTCTAGGTC; 5-10-5 gapmer, wing sugar chemistry not given here, further chemistry not given here) [compound 416826]
Human Factor XI mRNA [1]; 2.3 nM
  percent inhibition of human Factor XI mRNA: 16%
Human Factor XI mRNA [1]; 4.7 nM
  percent inhibition of human Factor XI mRNA: 28%
Human Factor XI mRNA [1]; 9.4 nM
  percent inhibition of human Factor XI mRNA: 38%
Human Factor XI mRNA [1]; 18.75 nM
  percent inhibition of human Factor XI mRNA: 55%
Human Factor XI mRNA [1]; 37.5 nM
  percent inhibition of human Factor XI mRNA: 64%
Human Factor XI mRNA [1]; 75 nM
  percent inhibition of human Factor XI mRNA: 66%
Human Factor XI mRNA [2]; 2.34 nM
  percent inhibition of human Factor XI mRNA, relative to untreated control cells: 15%
Human Factor XI mRNA [2]; 4.69 nM
  percent inhibition of human Factor XI mRNA, relative to untreated control cells: 22%
Human Factor XI mRNA [2]; 9.375 nM
  percent inhibition of human Factor XI mRNA, relative to untreated control cells: 32%
Human Factor XI mRNA [2]; 18.75 nM
  percent inhibition of human Factor XI mRNA, relative to untreated control cells: 54%
Human Factor XI mRNA [2]; 37.5 nM
  percent inhibition of human Factor XI mRNA, relative to untreated control cells: 76%
Human Factor XI mRNA [2]; 75 nM
  percent inhibition of human Factor XI mRNA, relative to untreated control cells: 90%
Human Factor XI mRNA [3]; 0.7 μM
  percent inhibition of Factor XI mRNA, relative to untreated control cells: 2%
Human Factor XI mRNA [3]; 2.2 μM
  percent inhibition of Factor XI mRNA, relative to untreated control cells: 47%
Human Factor XI mRNA [3]; 6.7 μM
  percent inhibition of Factor XI mRNA, relative to untreated control cells: 86%
Human Factor XI mRNA [3]; 20 μM
  percent inhibition of Factor XI mRNA, relative to untreated control cells: 82%
Human Factor XI mRNA [4]; 625 nM
  percent inhibition of human Factor XI mRNA: 67%
Human Factor XI mRNA [4]; 1250 nM
  percent inhibition of human Factor XI mRNA: 82%
Human Factor XI mRNA [4]; 2500 nM
  percent inhibition of human Factor XI mRNA: 89%
Human Factor XI mRNA [4]; 5000 nM
  percent inhibition of human Factor XI mRNA: 92%
Human Factor XI mRNA [4]; 10000 nM
  percent inhibition of human Factor XI mRNA: 95%
Human Factor XI mRNA [4]; 20000 nM
  percent inhibition of human Factor XI mRNA: 97%
Human Factor XI mRNA [5]; 9.375 nM
  percent inhibition of Factor XI mRNA, relative to untreated control cells: 8%
Human Factor XI mRNA [5]; 18.75 nM
  percent inhibition of Factor XI mRNA, relative to untreated control cells: 36%
Human Factor XI mRNA [5]; 37.5 nM
  percent inhibition of Factor XI mRNA, relative to untreated control cells: 58%
Human Factor XI mRNA [5]; 75 nM
  percent inhibition of Factor XI mRNA, relative to untreated control cells: 84%
Human Factor XI mRNA [6]; 0.74 nM
  percent inhibition of human Factor XI mRNA: 13%
Human Factor XI mRNA [6]; 2.2 nM
  percent inhibition of human Factor XI mRNA: 24%
Human Factor XI mRNA [6]; 6.7 nM
  percent inhibition of human Factor XI mRNA: 34%
Human Factor XI mRNA [6]; 20 nM
  percent inhibition of human Factor XI mRNA: 67%
Human Factor XI mRNA [6]; 60 nM
  percent inhibition of human Factor XI mRNA: 69%
Human Factor XI mRNA [6]; 180 nM
  percent inhibition of human Factor XI mRNA: 71%
[7]; after 50 mg/kg s.c. twice per week for 6 weeks
  urine protein/creatinine ratio, After: 11.4
[7]; before antisense oligonucleotide treatment
  urine protein/creatinine ratio, Before: 1.0
Human Factor XI mRNA [8]; 41.15 nM
  percent inhibition of human Factor XI mRNA: 0%
Human Factor XI mRNA [8]; 123.457 nM
  percent inhibition of human Factor XI mRNA: 0%
Human Factor XI mRNA [8]; 370.37 nM
  percent inhibition of human Factor XI mRNA: 34%
Human Factor XI mRNA [8]; 1111.11 nM
  percent inhibition of human Factor XI mRNA: 61%
Human Factor XI mRNA [8]; 3333.33 nM
  percent inhibition of human Factor XI mRNA: 87%
Human Factor XI mRNA [8]; 10000 nM
  percent inhibition of human Factor XI mRNA: 92%
[9]
  Percent change in Body weight: −40%
